The subject of assay [1] is mdx mice. In words: Histopathology of CTX injured and uninjured muscles of aged mdx mice after IP THI. It is filed as in vivo, mouse. The procedure:
Muscle repair in mdx mice become impaired during aging resulting in muscle atrophy and dystrophy. The effects of THI on the histopathology were assessed in injured and uninjured muscles from two groups of aged mdx mice (n=6, 11 month-old females and n=7, 16 month-old males). In this experiment, right TAs and quadriceps muscles were uninjured, while left counterparts were injured using CTX. The mdx mice were injected with THI, or PBS as a vehicle control, immediately following injury with CTX 5 times during a 3-day period. Injured and uninjured muscles were harvested 18 days post injury to survey the effects of THI on muscle repair. […] Injured muscles were lighter than uninjured muscles in vehicle treated mice, an approximate weight loss of 20% (*p<0.05).
The left TAs and quadriceps of six, 10 month old female mdx4cv mice were injected with 50 μl and 100 μl CTX respectively. Three mice were injected IP with 0.15 mg/ml THI in PBS, twice daily (injections 8 hours apart) immediately after and for the first three days following injury. The three remaining animals were injected IP with PBS as vehicle controls. 1% Evans Blue dye was injected IV on day 17 post CTX, to label persistently damaged (dye permeable) muscle fibers. Animals were euthanized 18 days post injury and muscles were frozen under liquid nitrogen cooled isopentane in optimal cutting temperature (OCT). All myofibers were measured for the minimum diameters on the cross-sections of mouse quadriceps muscle using image J software. 750˜850 myofibers were counted for three mice treated with PBS or THI with or without CTX injury.
All mouse muscles were frozen directly in OCT with liquid nitrogen cooled in isopentane and sections of 8 μm thickness were obtained. Tissue for x-gal staining, was fixed for 10 min with 2% formaldehyde/0.2% glutaraldehyde and incubated overnight at 37° C. with staining buffer (PBS with 1 mg/ml x-gal, 5 mM potassium ferricyanide, 5 mM potassium ferrocyanide, and 2 mM […] (all from Fisher). Oil Red-O and Picrosirius red staining were done following established protocols. For eMyHC staining, tissue was first fixed with 2% formaldehyde for 5 min, treated with streptavidin/avidin blocking kit (Vector labs), and blocked with IgG block from M.O.M kit (Vector Labs) for 5 hrs at 4° C. Following blockade, concentrated mouse anti-eMyHC (clone F1.652 received at 357 μg/ml IgG) obtained from the developmental studies hybridoma bank (DHSB, University of Iowa) was administered at 1:400 dilution, overnight at 4° C. The remainder of the staining was done following mouse-on-mouse (M.O.M) kit staining instructions. For laminin staining tissue was also fixed with 2% formaldehyde for 5 min, and then treated with polyclonal rabbit anti-laminin (Sigma) for 1 hr at a 1:400 dilution in PBS+1% BSA. Following washes, Alexa Fluor 488 conjugated goat anti-rabbit IgG (Invitrogen) was administered at 1:800 dilution for 1 hr. Controls omitting the primary antibody were included with all staining. Staining quantifications were all done using ImageJ v1.40 (Wayne Rasband, NIH) cell counter plugin (Kurt De Vos, University of Sheffield). Calculations, statistics, and graphs were generated with Microsoft Excel. Brightfield photographs were captured using either a Fisher Micromaster digital inverted or upright microscopes with Micron software. Fluorescent photographs were captured with a monochromatic camera using a Zeiss Axiovert 200 microscope. Individual fluorescent channels were colored and merged using Adobe Photoshop CS2. Brightness contrast levels were adjusted to increase visibility and reduce background in most photographs.
Both stainings were done using freshly frozen mdx muscles. Pax7 staining was done as outlined by Clever et al., with slight modification (Clever J L, et al. Am J Physiol Cell Physiol. 2010; 298:C1087-C1099). Sections were fixed overnight in 4% formaldehyde (from PFA powder) at 4° C. […]

Assay [2] has as its system mdx mice. In words: EDL muscle myography in mdx mice. In kind it is in vivo, mouse. The conditions noted are these: THI IP twice-daily two weeks. As to the method: The effect of THI administration on muscle function and recovery in mdx mice was analyzed. The mice were injected intraperitoneally with THI in PBS or vehicle alone (PBS) twice-daily for two weeks. Total amount of THI delivered per day was 75 ug. Extensor digitorum longus (EDL) muscles were excised from the mice and equilibrated in ringer's solution with 95% O2/5% CO2 for a minimum of 15 minutes prior to stimulation. Myography was conducted using a DMT 820S myograph and data was recorded using PowerLab 4/30 acquisition system with LabChart Pro software v7.3.1 (both from ADI instruments, Colorado Springs, Colo.). Stimulations were conducted with a Grass Instrument S88X system (Grass Technologies, West Warwick, R.I.). Muscles were stimulated to establish optimal fiber length (Lf) and voltage at which maximum tetanic force was measured at 120 Hz within a 450 ms duration.
Specific force was calculated as previously described in Gregorevic P. et al. (Gregorevic P. et al., Muscle Nerve. 2004 September; 30(3):295-304, PMID#15318340) by normalizing to whole muscle cross-sectional area (CSA). CSA is the quotient of […] muscle mass over the optimal muscle length (Lo) which is defined as the product of muscle fiber length (Lf) with the fiber length ratio (0.44 for EDL) and mammalian muscle density (1.06).
Muscle recovery was measured after muscle was fatigued with stimulation over 6 minutes. […] Recovery was determined by examining muscle force at 5, 10, and 15 minutes after stimulation. […] Therefore, the administration of THI improved muscle recovery and function in dystrophic mice.
The effect of THI-oxime administration on muscle function and recovery in mdx mice was analyzed. The mice were injected intraperitoneally with THI-oxime (n=3) or PBS vehicle alone (n=4) twice-daily for two weeks and then analyzed between 1-4 days following the final day of injection. Total amount of THI-oxime delivered per day was 75 ug. Prior to euthanasia, the animals were anesthetized with 0.5 mg/g weight avertin diluted in PBS. EDL muscles were excised from the mice and equilibrated in ringer's solution (120 mM NaCl, 4.7 mM KCl, 3.15 mM MgCl2, 1.3 mM NaH2PO4, 25 mM NaHCO3, 11 mM Glucose, 1.25 mM CaCl2, pH 7.2) with 95% O2/5% CO2 for a minimum of 15 minutes prior to stimulation. All functional experiments were carried out with buffer solutions at 25° C. under constant oxygenation. Myography was conducted using a DMT 820S myograph and data was recorded using PowerLab 4/30 acquisition system with LabChart Pro software v7.3.1 (both from ADI instruments, Colorado Springs, Colo.). […] Muscles were stimulated to establish optimal fiber length (Lf) and voltage at which maximum tetanic force was measured at 120 Hz within a 450 ms duration. […]

[3] abbreviates: 11MO and 16MO mdx mice, Oil Red-O.
Where [4] appears, read: 11MO mdx mice, dye injected day 17 post injury.
Setting [5] is: 11 month-old mdx mice, vs vehicle.
The mark [6] stands for this setting: aged mdx mice, 18 days post CTX injury, vs vehicle.

Regarding `CC(=O)c1ncc([C@@H](O)[C@H](O)[C@H](O)CO)[nH]1` [THI, 1-[5-[(1R,2S,3R)-1,2,3,4-tetrahydroxybutyl]-1H-imidazol-2-yl]-ethanone], in the assay on mdx mice [1] (setting [3]), the “ratio of fat deposition in injured TAs over uninjured contralateral TAs” value is given as “significantly reduced in THI treated vs. control animals in 11MO (*) but not 16 MO mdx mice” and the “ratio of injured over uninjured fat deposits in quadriceps” value is listed as “significantly reduced in 16MO (#) but not in the 11MO mdx mice”. In the assay on mdx mice [1] (setting [4]), the “Evans Blue positive fibers in injured quadriceps over entire cross-sectional area” value is under 5 and the “Evans Blue positive fibers in uninjured contralateral quadriceps” value is given as “almost zero”. Besides, in the assay with mdx mice [1] (setting [5]), the “mean number of satellite cells (Pax7+ nuclei) in limb muscles (TAs and Quadriceps)” value was “significant increase”; the “minimum fiber diameter, uninjured and injured quadriceps and diaphragms” value is “significant increase”. Further, in the assay on mdx mice [1] (16 month-old mdx males, 18 days post injury), the “ratio of dry weight of CTX injured over uninjured quadriceps, normalized to body weight” value is “ratio close to one”. Moreover, the “muscle fiber size, uninjured quadriceps” value in the assay with mdx mice [1] (16 month-old mdx males, vs vehicle) is given as “significant increase”. For the same molecule, the “overall histological muscle morphology of injured muscles” value with mdx mice [1] (aged mdx mice, 18 days post CTX injury) is “more organized”. In the assay with mdx mice [1] (setting [6]), the “average fat deposition in injured TAs (Oil Red-O)” value is listed as “significantly lower average fat deposition”; the “fibrosis in injured TAs and quadriceps muscles (Picrosirius Red)” value is “significantly reduced fibrosis”. For the same molecule, the “maximum specific force of EDL muscle” value in the assay with mdx mice [2] (75 ug per day, vehicle 95.45) is 134.29 KN/m^2. In the assay on mdx mice [2] (vs vehicle), the “muscle fatigue with stimulation over 6 minutes” value is given as “fatigued at similar rates”; the “muscle recovery (force at 5, 10 and 15 minutes after stimulation)” value is “improved recovery”.

(Values after patent US20140051729A1, “COMPOSITIONS AND METHODS FOR TREATING DEGENERATIVE MUSCLE CONDITIONS” (University of Washington, priority 2011, published 2014).)
